Assay results as given in patent publication US20090029855A1, “Quinoline Derivatives and Their Use as Pesticides” (priority 2006, published 2009).

Assays:
Type in all cases: in vivo
[1] = tested on: Yellowfever Mosquito (Aedes aegypti); assay: Yellowfever mosquito glass vial (glass contact) assay
Experimental: (§1) Glass vials (20 ml scintillation vials) were treated with 0.44 ml of a solution of active ingredient in acetone. Each vial was rolled uncapped for ca. 10 minutes to allow the active ingredient to completely coat the vial and to allow for full drying of the acetone. Six insects or ticks were placed into each vial, with 5 vials per treatment rate. The vials are kept at 22° C. and are observed for treatment effects at various time intervals.

[2] = tested on: Yellowfever Mosquitos (Aedes Aegypti), 4th instar larvae; assay: Activity against yellowfever mosquitos via water treatment
Experimental: The test compound (1 Vol % in acetone) was applied to 9 ml distilled water In polystyrene plastic 6-well plates. Treatment rates were applied 1 and 10 ppm. Ten, 4th instar yellowfever mosquito larvae, Aedes aegypti, were added to each well in 1 ml of distilled water. The test dishes were maintained at 22° C. and observed daily for mortality, up to 5 days after treatment. Each treatment was replicated in 6 wells.

[3] = tested on: Acrobat Ant (Crematogaster sp.); assay: Acrobat ant glass vial (glass contact) assay
Experimental: as §1

[4] = tested on: Acrobat Ant (Crematogaster sp.); assay: Acrobat ant soil incorporation assay
Experimental: (§2) Soil was prepared by adding stock solutions (active dissolved in acetone) to 100 g sandy loam soil to make 1, 10, and 100 ppm batches. Jars of soils were rolled on a jar roller to mix thoroughly and then allowed to vent over night with the acetone evaporating off.
Ant bioassays were conducted in 100×20 mm Petri dishes and were prepared with a layer of 1% agar (7 ml) and then 12.75 g of dry treated soil. A cotton pellet (#2) soaked with a 10% sugar solution was added to each dish in a micro-weigh boat as a source of moisture and food. Each dish was then infested with 15 acrobat ant workers, Crematogaster sp. Three replicates were setup per treatment rate. Mortality was observed daily up to 7 days with moribund and dead ants removed at each reading.

[5] = tested on: Eastern Subterranean Termites (Reticulitérmes Flávipes); assay: Activity against eastern subterranean termites via termite filter paper bait
Experimental: Toxicant treatments (0.1 and 0.3% test compound w/w) were applied to 4.25 cm (diam.) filter papers in acetone solution. Treatment levels (% test compound) were calculated on basis of a mean weight per filter paper of 106.5 mg. Treatment solutions were adjusted to provide the quantity of toxicant (mg) required per paper in […] of acetone. Acetone only was applied for untreated controls. Treated papers were vented to evaporate the acetone, moistened with 0.25 ml water, and placed in corresponding test arenas.
Termite bait bioassays were conducted in 100×15 mm Petri dishes with 1 teaspoon fine sand spread in a thin layer over the bottom of each dish. An additional 0.25 teaspoon sand was piled against the side of each dish. The sand was moistened with 2.7 ml water applied to the piled sand. Water was added to dishes as needed over the course of the bioassays to maintain high moisture content. Bioassays had one treated filter (on the sand) and 30 termite workers per test dish. Each treatment level was replicated in 3 test dishes. Test dishes were maintained at approximately 30° C. and 85% humidity for 14 days and observed daily for mortality.

[6] = tested on: Subterranean Termites (Reticulitermes flavipes); assay: Termite soil incorporation assay; details: 100 ppm after 9 days
Experimental: as §2
Subterranean termite bioassays were conducted in 50×15 mm Petri dishes and were prepared with a layer of 1% agar (2 ml) and then 2 g of dry treated soil. A 1 cm^2 piece of filter paper, moistened with 1 drop of distilled water was added to each dish as a source of cellulose food. Each dish was then infested with 15 eastern subterranean termite workers, Reticulitermes flavipes. Five replicates were setup per treatment rate. Mortality was observed daily up to 7 days with moribund and dead termites removed at each reading.

[7] = tested on: House Fly (Musca domestica); assay: House fly glass vial (glass contact) assay
Experimental: as §1

[8] = tested on: Tobacco Budworm (Heliothis Virescens); assay: Activity against tobacco budworm, eggs in microtiterplates; details: 144 h, eggs sprayed, 6 days
Experimental: (§3) The active compounds were formulated in 1:3 DMSO:water. 15 to 25 eggs were placed into microtiterplates filled with diet. The eggs were sprayed with 10 μl of the test solution, the plates were sealed with pierced foils and kept at 27-29° C. and 75-85% humidity under fluorescent light for 6 days. Mortality was assessed on the basis of the agility and of comparative feeding of the hatched larvae. Tests were replicated 2 times.

[9] = tested on: Silverleaf whitefly (Bemisia Argentifolii); assay: Silverleaf whitefly, cotton cotyledon dip; details: 72 h, 3 days after treatment, read-out: mortality in comparison with untreated controls
Experimental: (§4) The active compounds were formulated in 50:50 acetone:water and 100 ppm Kinetic™ surfactant.
Selected cotton plants were grown to the cotyledon state (one plant per pot). The cotyledons were dipped into the test solution to provide complete coverage of the foliage and placed in a well-vented area to dry. Each pot with treated seedling was placed in a plastic cup and 10 to 12 whitefly adults (approximately 3-5 day old) were introduced. The insects were colleted using an aspirator and an 0.6 cm, non-toxic Tygon tubing connected to a barrier pipette tip. The tip, containing the collected insects, was then gently inserted into the soil containing the treated plant, allowing insects to crawl out of the tip to reach the foliage for feeding. The cups were covered with a re-usable screened lid (150 micron mesh polyester screen PeCap from Tetko Inc). Test plants were maintained in the holding room at about 25° C. and 20-40% relative humidity for 3 days avoiding direct exposure to the fluorescent light (24 hour photoperiod) to prevent trapping of heat inside the cup. Mortality was assessed 3 days after treatment of the plants.

[10] = tested on: Southern Armyworm (Spodoptera Eridanid), 2nd-3rd instar larvae; assay: Southern armyworm, lima bean foliage dip; details: foliar, 96 h, after 4 days, read-out: mortality in comparison with untreated controls
Experimental: The active compounds were formulated as a 10.000 ppm solution in a mixture of 35% acetone and water, which was diluted with water, if needed.
Sieva lima bean foliage, expanded to the first true leaves, were dipped and agitated in the test solution for 3 seconds and then allowed to dry in a fume hood. The treated plant was then placed in 25-cm plastic perforated zip enclosure bags, ten 2nd-instar larvae were added, and the bags sealed. After 4 days, observations were made of mortality, plant feeding, and of any interference with larval growth.

[11] = tested on: Diamond Back Moth (plutella Xylostella); assay: Activity against diamond back moth, cabbage leaf disk dip; details: foliar, after 72 h, read-out: mortality in comparison with untreated controls
Experimental: 13. Activity Against Diamond Back Moth (plutella Xylostella) The active compounds were formulated in 50:50 acetone:water and 0.1% (vol/vol) Alkamuls EL 620 surfactant. A 6 cm leaf disk of cabbage leaves was dipped in the test solution for 3 seconds and allowed to air dry in a Petri plate lined with moist filter paper. The leaf disk was inoculated with 10 third instar larvae and kept at 25-27° C. and 50-60% humidity for 3 days. Mortality was assessed after 72 h of treatment.

[12] = tested on: Mediterranean Fruitfly (Ceratitis Capifata); assay: Activity against Mediterranean fruitfly, eggs in microtiterplates; details: 144 h, eggs sprayed, 6 days
Experimental: as §3, with “50” for “15”, “80” for “25”, “0.5% agar-agar and 14% diet in water.” for “diet.”, “5” for “10”, “agility” for “agility and of comparative feeding”

[13] = tested on: Green Peach Aphid (Myzus Persicae); assay: Green peach aphid, pepper plant leaf dip; details: foliar, 120 h, after 5 days, read-out: mortality in comparison with untreated controls
Experimental: as §4
Pepper plants in the 2nd leaf-pair stage (variety California Wonder) were infested with approximately 40 laboratory-reared aphids by placing infested leaf sections on top of the test plants. The leaf sections were removed after 24 hr. The leaves of the intact plants were dipped into gradient solutions of the test compound and allowed to dry. Test plants were maintained under fluorescent light (24 hour photoperiod) at about 25° C. and 20-40% relative humidity. Aphid mortality on the treated plants, relative to mortality on check plants, was determined after 5 days.

[14] = tested on: Cowpea Aphid (Aphis Craccivora); assay: Activity against cowpea aphid, sprayed potted cowpea plants; details: population reduction recorded after 24, 72 and 120 hours, read-out: mortality in comparison with untreated controls
Experimental: The active compounds were formulated in 50:50 acetone:water. Potted cowpea plants colonized with 100-150 aphids of various stages were sprayed after the pest population has been recorded. Population reduction was recorded after 24, 72, and 120 hours.

[15] = tested on: Boll Weevil (Anthonomus grandis); assay: Activity against boll weevil, eggs in microtiterplates; details: eggs sprayed, 3 to 5 days
Experimental: The active compounds were formulated in 1:3 DMSO:water. 10 to 15 eggs were placed into microtiterplates filled with 2% agar-agar in water and 300 ppm formaline. The eggs were sprayed with 20 μl of the test solution, the plates were sealed with pierced foils and kept at 24-26° C. and 75-85% humidity with a day/night cycle for 3 to 5 days. Mortality was assessed on the basis of the remaining unhatched eggs or larvae on the agar surface and/or quantity and depth of the digging channels caused by the hatched larvae. Tests were replicated 2 times.

[16] = tested on: Cotton Aphid (Aphis Gossypil), mixed life stages; assay: Cotton aphid, mixed life stages, cotton cotyledon dip; details: 120 h, after 5 days, read-out: mortality in comparison with untreated controls
From the text: The active compounds were formulated in 50:50 acetone:water and 100 ppm Kinetic® surfactant.
Cotton plants at the cotyledon stage were infested prior to treatment by placing a heavily infested leaf from the main aphid colony on top of each cotyledon. The aphids were allowed to transfer overnight and the host leaf was removed. The infested cotyledons were then dipped and agitated in the test solution for 3 seconds and allowed to dry in a fume hood. Test plants were maintained under fluorescent lighting in a 24-hr photoperiod at 25° C. and 20-40% relative humidity. Aphid mortality on the treated plants, relative to mortality on untreated check plants, was determined after 5 days.

[17] = tested on: Vetch Aphid (Megoura Viciae); assay: Activity against vetch aphid, bean leaf disks in microtiterplates; details: foliar, 144 h, leaf disks sprayed, 6 days
Experimental: The active compounds were formulated in 1:3 DMSO:water. Bean leaf disks were placed into microtiterplates filled with 0.8% agar-agar and 2.5 ppm OPUS™. The leaf disks were sprayed with 2.5 μl of the test solution and 5 to 8 adult aphids were placed into the microtiterplates which were then closed and kept at 22-24° C. and 35-45% under fluorescent light for 6 days. Mortality was assessed on the basis of vital, reproduced aphids. Tests were replicated 2 times.

[18] = tested on: Colorado Potato Beetle (Leptinotarsa Decemlineata); assay: Colorado potato beetle, potato leaf dip in Petri dishes; details: foliar, 120 h, 5 days after treatment, read-out: mortality in comparison with untreated controls
Experimental: Potato plants were utilized for bioassays. Excised plant leaves were dipped into 1:1 acetone/water dilutions of the active compounds. After the leaves had dried, they were individually placed onto water-moistened filter paper on the bottoms of Petri dishes. Each dish was infested with 5-7 larvae and covered with a lid. Each treatment dilution was replicated 4 times. Test dishes were held at approximately 27° C. and 60% humidity. Numbers of live and morbid larvae were assessed in each dish at 5 days after treatment application, and percent mortality was calculated.

[19] = tested on: 2-Spotted Spider Mite (Tetranychus Urticae, OP-Resistant Strain); assay: 2-spotted spider mite, lima bean plant dip; details: 300 ppm; after 5 days
Experimental: as §4
Sieva lima bean plants with primary leaves expanded to 7-12 cm were infested by placing on each a small piece from an infested leaf (with about 100 mites) taken from the main colony. This was done at about 2 hours before treatment to allow the mites to move over to the test plant to lay eggs. The piece of leaf used to transfer the mites was removed. The newly-infested plants were dipped in the test solution and allowed to dry. The test plants were kept under fluorescent light (24 hour photoperiod) at about 25° C. and 20-40% relative humidity. After 5 days, one leaf was removed and mortality counts were made.

Q: `O=S(=O)(NCc1ccnc2ccccc12)c1ccc(-c2ccc(Cl)cc2Cl)cc1` [I-1] was tested. Which mortality ([1]; 10 ppm after 48 hours) did it give?
A: 37%

Q: What about the mortality ([2]; 1 ppm after 3 days) of the same molecule?
A: 100%

Q: And the mortality ([3]; 100 ppm after 4 days)?
A: 7%

Q: And the mortality ([4]; 100 ppm after 7 days)?
A: 36%

Q: What about the mortality ([5]; 0.1% w/w after 7 days) of the same molecule?
A: 99%

Q: And the mortality [6]?
A: 95%

Q: What about the mortality ([7]; 10 ppm after 48 hours) of the same molecule?
A: 30%

Q: For `O=S(=O)(NCc1ccnc2ccccc12)c1ccc(-c2cc(Cl)ccc2Cl)cc1` [I-8, 2′,5′-dichloro-biphenyl-4-sulfonicacid (quinoline-4-ylmethyl)-amide], which mortality at 2500 ppm [8] is on record?
A: ≥ 75%

Q: What about the mortality at 300 ppm [9] of the same molecule?
A: ≥ 70%

Q: And the mortality at 300 ppm [10]?
A: ≥ 80%

Q: What about the mortality at 300 ppm [11] of the same molecule?
A: ≥ 75%

Q: And the mortality at 2500 ppm [12]?
A: ≥ 75%

Q: And the mortality at 300 ppm [13]?
A: ≥ 75%

Q: What about the mortality at 300 ppm [14] of the same molecule?
A: ≥ 80%

Q: What about the mortality at 2500 ppm [15] of the same molecule?
A: ≥ 75%

Q: And the mortality at 300 ppm [16]?
A: ≥ 80%

Q: And the mortality at 2500 ppm [17]?
A: ≥ 75%

Q: `O=S(=O)(NCc1ccnc2ccccc12)c1ccc(-c2ccc(C(F)(F)F)cc2C(F)(F)F)cc1` [I-10] was tested. Which mortality ([1]; 10 ppm after 24 hours) did it give?
A: 100%

Q: And the mortality ([2]; 10 ppm after 5 days)?
A: 52%

Q: And the mortality ([3]; 100 ppm after 2 days)?
A: 86%

Q: And the mortality ([4]; 100 ppm after 3 days)?
A: 100%

Q: And the mortality ([5]; 0.3% w/w after 14 days)?
A: 86%

Q: And the mortality [6]?
A: 84%

Q: What about the mortality ([7]; 10 ppm after 24 hours) of the same molecule?
A: 80%

Q: `O=S(=O)(NCc1ccnc2c(Cl)cccc12)c1ccc(-c2ccc(C(F)(F)F)cc2C(F)(F)F)cc1` [I-22, 2′,4′-bis-trifluoromethyl-biphenyl-4-sulfonic acid (8-chloroquinoline-4-yl-methyl)-amide] was tested. Which mortality at 300 ppm [10] did it give?
A: ≥ 80%

Q: What about the mortality at 300 ppm [18] of the same molecule?
A: ≥ 75%

Q: `Cc1cc(C(F)(C(F)(F)F)C(F)(F)F)ccc1-c1ccc(S(=O)(=O)NCc2ccnc3ccccc23)cc1` [I-46] was tested. Which “mortality in comparison with untreated controls” value [19] did it give?
A: at least 70%

Q: For `O=S(=O)(NCc1ccnc2c(F)cccc12)c1ccc(Br)cc1` [II-5, 4-bromo-N-(8-fluoro-quinolin-4-ylmethyl)-benzenesulfonamide], which mortality at 2500 ppm [15] is on record?
A: ≥ 75%
